ChEMBL document CHEMBL1201862, “PubChem BioAssay data set” (2004)
The source made the active and inactive calls.

Assays:
[1] = biological target: T1, DNA repair protein RAD52 homolog (Homo sapiens, UniProt P43351); format: functional, biochemical
T1 sequence (P43351 whole entry): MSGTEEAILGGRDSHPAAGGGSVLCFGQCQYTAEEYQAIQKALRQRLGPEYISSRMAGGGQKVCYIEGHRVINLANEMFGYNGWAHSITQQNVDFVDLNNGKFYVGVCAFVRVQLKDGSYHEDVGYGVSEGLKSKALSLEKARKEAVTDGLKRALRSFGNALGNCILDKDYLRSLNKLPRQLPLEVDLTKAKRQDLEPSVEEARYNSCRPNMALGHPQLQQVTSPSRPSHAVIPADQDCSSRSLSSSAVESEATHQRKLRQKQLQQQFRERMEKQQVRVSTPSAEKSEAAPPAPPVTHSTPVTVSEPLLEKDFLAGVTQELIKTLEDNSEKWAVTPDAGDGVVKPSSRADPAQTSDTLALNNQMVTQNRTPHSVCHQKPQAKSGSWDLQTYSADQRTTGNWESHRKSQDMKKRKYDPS

[2] = inhibitors of firefly luciferase expression or activity, dose response, H4 neuroglioma cells, luminescence (AID 1990); format: functional, cell-based
[3] = Luminescence Cell-Based Dose Response HTS to Identify Inhibitors of 5'UTR Stem-Loop Driven Prion Protein mRNA Translation in H4 Neuroglioblastoma Cells. [Related pubchem assays: 1827 (Project Summary), 1813 (Primary HTS)]; format: functional
[4] = inhibitors of SNCA 5'UTR-driven reporter translation, confirmation, H4 neuroglioma cells, luminescence (AID 1988); format: functional, cell-based
[5] = Shn3 3'UTR reporter inhibitors, dose response, cell-based, Clone20 osteoblasts, firefly luciferase, cherry-picked (AID 624132); format: functional;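 note: firefly luciferase luminescence from reporter carrying the Shn3 3'UTR in osteoblasts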
[6] = HepG2 cell cytotoxicity, dose response, cytotoxicity control for Shn3 inhibitor project, CellTiter-Glo, cherry-picked (AID 624134); format: functional, cell-based
[7] = control 3'UTR Renilla luciferase suppression, dose response, counter-screen for Shn3 inhibitor project, cell-based, Clone20-Shn3RL, cherry-picked (AID 624133); format: functional
INS1 = experiment: beta cell apoptosis inhibitors, cytokine rescue, dose response, luminescence, retest (AID 449756); format: functional, cell-based; settings: Rattus norvegicus;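 note: cell death triggered by IL-1 beta plus TNF-alpha plus IFN-gamma mixture; protective hits raise ATP signal compared with cytokine alone wells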
[8] = microbe, parasite or virus in culture; format: functional; settings: Mycobacterium tuberculosis
H9c2 = experiment: cells; format: functional, cell-based; settings: Rattus norvegicus, H9c2, Myocardium;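 note: confirmatory concentration-response retest of ultra-high-throughput screening hits for modulation of myocardial damage; cell death induced by hydrogen peroxide oxidative stress; compound pretreatment for 60 min then peroxide exposure for 2 h; potency is for protecting the cells against peroxide damage rather than for killing them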
[9] = system: Streptococcus sp. 'group A'; experiment: growth inhibition of control SK(-) GAS strain, dose response, counter-screen for streptokinase expression inhibitor project, luminescence, kanamycin, BacTiterGlo, confirmation (AID 1900); format: functional, organism-based
Streptokinase A = biological target: T2, Streptokinase A (Streptococcus pyogenes serotype M1, UniProt P10520); experiment: S. pyogenes streptokinase expression inhibitors, potency, dose response, plasminogen activation absorbance, OD405 (AID 1914); format: functional, Streptococcus pyogenes M1 GAS;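 note: secreted streptokinase activity via plasminogen activation per viability signal from cell pellet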
T2 sequence (P10520 whole entry): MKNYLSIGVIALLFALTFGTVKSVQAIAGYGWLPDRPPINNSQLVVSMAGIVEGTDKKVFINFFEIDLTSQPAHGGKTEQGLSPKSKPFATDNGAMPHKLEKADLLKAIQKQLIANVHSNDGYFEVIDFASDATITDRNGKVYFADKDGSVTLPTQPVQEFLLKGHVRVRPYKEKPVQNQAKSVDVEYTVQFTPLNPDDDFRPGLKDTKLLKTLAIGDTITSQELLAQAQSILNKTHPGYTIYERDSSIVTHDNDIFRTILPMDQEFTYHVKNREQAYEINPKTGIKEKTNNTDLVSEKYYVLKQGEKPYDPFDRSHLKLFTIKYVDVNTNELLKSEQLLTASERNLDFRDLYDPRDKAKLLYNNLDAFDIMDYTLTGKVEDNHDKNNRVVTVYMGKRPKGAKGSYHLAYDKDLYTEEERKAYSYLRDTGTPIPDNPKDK

Streptococcus = experiment: Group A Streptococcus viability loss, dose response, counter-screen for streptokinase expression inhibitor project, luminescence, BacTiterGlo (AID 1915); format: functional, organism-based;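 note: potency for reduction of bacterial viability or growth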
Vero = experiment: cells; format: functional; settings: Chlorocebus sabaeus
[10] = biological target: T3, RNA-binding protein pos-1 (Caenorhabditis elegans, UniProt G5EF15); experiment: inhibitors of POS-1/mex-3 RNA binding, dose response, biochemical, fluorescence polarization (AID 1964);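 note: purified POS-1 fused to maltose binding protein made in E. coli; potency of compounds blocking POS-1 binding to fluorescent RNA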
T3 sequence (G5EF15 whole entry): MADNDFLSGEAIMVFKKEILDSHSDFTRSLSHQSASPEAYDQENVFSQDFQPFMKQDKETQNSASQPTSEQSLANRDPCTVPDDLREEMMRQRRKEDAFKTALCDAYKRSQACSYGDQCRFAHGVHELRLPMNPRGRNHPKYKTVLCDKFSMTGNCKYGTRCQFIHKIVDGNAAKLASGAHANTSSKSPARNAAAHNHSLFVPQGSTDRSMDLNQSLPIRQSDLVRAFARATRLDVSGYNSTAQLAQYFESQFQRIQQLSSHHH

[11] = biological target: T4, Zinc finger protein mex-5 (Caenorhabditis elegans, UniProt Q9XUB2); experiment: MEX-5/TCR-2 RNA interaction inhibitors, dose response, biochemical, C. elegans, fluorescence polarization (AID 1960)
T4 sequence (Q9XUB2 whole entry): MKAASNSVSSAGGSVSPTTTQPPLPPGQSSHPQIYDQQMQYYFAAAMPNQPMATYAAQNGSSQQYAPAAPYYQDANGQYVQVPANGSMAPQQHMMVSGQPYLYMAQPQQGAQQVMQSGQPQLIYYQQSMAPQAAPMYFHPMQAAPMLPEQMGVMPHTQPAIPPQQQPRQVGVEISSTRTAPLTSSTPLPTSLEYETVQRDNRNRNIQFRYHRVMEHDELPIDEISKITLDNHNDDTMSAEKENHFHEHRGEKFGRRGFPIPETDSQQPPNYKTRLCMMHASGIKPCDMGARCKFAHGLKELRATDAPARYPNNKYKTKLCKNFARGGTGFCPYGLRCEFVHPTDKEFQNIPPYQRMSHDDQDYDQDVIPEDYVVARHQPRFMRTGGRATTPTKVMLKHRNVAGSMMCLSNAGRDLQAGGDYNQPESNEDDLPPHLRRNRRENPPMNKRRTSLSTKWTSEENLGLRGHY

[12] = biological target: T5, Calpain-2 catalytic subunit (Sus scrofa, UniProt P43367); experiment: pig calpain II inhibitor potency, dose response, biochemical, fluorogenic peptide substrate (AID 1420); format: functional
T5 sequence (P43367 whole entry): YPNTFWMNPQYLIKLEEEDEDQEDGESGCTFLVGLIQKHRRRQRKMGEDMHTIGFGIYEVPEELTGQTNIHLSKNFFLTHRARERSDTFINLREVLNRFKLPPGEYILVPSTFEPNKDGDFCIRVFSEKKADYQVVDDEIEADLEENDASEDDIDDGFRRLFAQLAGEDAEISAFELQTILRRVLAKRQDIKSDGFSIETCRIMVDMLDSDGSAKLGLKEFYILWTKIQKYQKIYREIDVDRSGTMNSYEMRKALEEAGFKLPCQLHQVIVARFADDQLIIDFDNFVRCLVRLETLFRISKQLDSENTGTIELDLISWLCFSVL

[13] = NIH-3T3 fibroblast cytotoxicity, dose response, cytotoxicity control, cell-based, fluorescence, Alamar Blue, secondary assay (AID 2327); format: functional;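 note: NIH-3T3 mouse fibroblasts cultured with fluconazole at 8 µg/mL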
[14] = C. albicans growth with fluconazole, confirmation, fluorescence, retest (AID 2467); format: functional, cell-based
Paired box protein Pax-8 = Paired box protein Pax-8 (Homo sapiens, UniProt Q06710); experiment: inhibitors of PAX8-driven TPO luciferase reporter, dose response, RMG-I cells, cherry-pick (AID 687027); format: functional, cell-based;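 note: luciferase reporter driven by Pax8 target thyroperoxidase promoter measured by SteadyGlo luminescence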
Paired box protein Pax-8, sequence (Q06710 whole entry): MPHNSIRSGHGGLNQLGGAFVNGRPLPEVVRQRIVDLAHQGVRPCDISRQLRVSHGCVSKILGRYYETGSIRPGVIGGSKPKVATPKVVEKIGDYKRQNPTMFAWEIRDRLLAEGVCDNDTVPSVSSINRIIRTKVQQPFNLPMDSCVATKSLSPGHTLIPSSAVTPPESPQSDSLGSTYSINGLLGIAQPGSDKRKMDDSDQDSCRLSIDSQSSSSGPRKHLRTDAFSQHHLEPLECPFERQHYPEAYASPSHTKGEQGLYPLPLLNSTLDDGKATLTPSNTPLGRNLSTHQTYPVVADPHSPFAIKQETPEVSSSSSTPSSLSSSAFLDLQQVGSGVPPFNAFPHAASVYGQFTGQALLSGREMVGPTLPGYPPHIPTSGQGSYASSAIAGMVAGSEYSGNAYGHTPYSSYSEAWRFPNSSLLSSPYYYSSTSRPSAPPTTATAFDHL

[15] = cytotoxicity in OVCAR8 ovarian cancer cells, dose response, PAX8 project, cell-based, plate reader, dry powder samples (AID 743197); format: functional; settings: OVCAR-8
[16] = P. falciparum Dd2 growth inhibitors, dose response, SYBR Green, cherry-picked samples (AID 1159567); format: functional, cell-based

Cc1ccc2c(c1)c1c3n2CCN(CC(O)CNC(C)C)C3CCC1 (configuration not stated)
AC50 [1]: 15.8 µM (active)

COc1ccc2nc(NCCN=C(S)NCCCN3CCOCC3)c(C#N)cc2c1
AC50 [1]: 9.87 µM (active)

Cc1ccc(NC(CNS(=O)(=O)c2ccc(Cl)cc2)c2ccccc2)cc1 (configuration not stated)
EC50 [2]: > 120 µM (not active)
EC50 [3]: 45.4 µM (active)
EC50 [4]: 10.3 µM (active)

Cc1c(C(=O)Nc2ccc(F)c(F)c2)oc2ccc(S(=O)(=O)N3CCCCC3)cc12
AC50 [5]: 7.05 µM (active)
AC50 [6]: > 70 µM (inactive)
AC50 [7]: 28 µM (active)

CCOc1ccc(NC(=S)N2CCC(NC(=O)c3ccccc3C)CC2)cc1
EC50 [2]: > 120 µM (not active)
EC50 [3]: > 120 µM (not active)
EC50 [4]: > 120 µM (not active)

COc1ccccc1-c1nnc(NC(=O)c2ccc(S(=O)(=O)N(C)C)cc2)o1
EC50 [2]: > 120 µM (not active)
EC50 [3]: > 120 µM (not active)
EC50 [4]: > 120 µM (not active)

CCOc1ccc(S(=O)(=O)N(C)c2ccc(OCC(=O)Nc3nc4ccccc4s3)cc2)cc1
AC50 (INS1): 7.73 µM (active)
AC50 [5]: 2.82 µM (active)
AC50 [6]: 34.6 µM (active)
AC50 [7]: 4.06 µM (active)

O=C(Nc1ccc(N2CCOCC2)c(Cl)c1)c1c(F)c(F)c(F)c(F)c1F
CC50 [8]: > 40 µM (active)

CC(C)(C)c1ccc(OCC(=O)Nc2ccc3c4c(cccc24)C(=O)NC3=O)cc1
EC50 [2]: > 120 µM (not active)
EC50 [3]: 10.8 µM (active)
EC50 [4]: > 120 µM (not active)
IC50 (H9c2): 20.9 µM (active)

C=CCn1c(SCc2ccc(C#N)cc2)nnc1-c1cccc(OC)c1
EC50 [2]: 18.6 µM (active)
EC50 [3]: 48.7 µM (active)
EC50 [4]: > 120 µM (not active)

CCN1C(=O)/C(=C/c2c[nH]nc2-c2ccccc2)SC1=S
EC50 [2]: > 120 µM (not active)
EC50 [3]: > 120 µM (not active)
EC50 [4]: > 120 µM (not active)

O=C1c2ccc3c4c(ccc(c24)C(=O)N1c1cccc(O)c1)C(=O)N(c1cccc(O)c1)C3=O
EC50 [2]: 17.1 µM (active)
EC50 [9]: 1.22 µM (active)
EC50 [3]: 85.7 µM (active)
EC50 [4]: 15.1 µM (active)
EC50 (Streptokinase A): > 150 µM (not active)
EC50 (Streptococcus): 1.29 µM (active)
AC50 (INS1): 0.848 µM (active)
CC50 (Vero): > 25 µM (active)

CC(C)N1CCc2c(sc(NC(=O)c3ccc4ccccc4c3)c2C(N)=O)C1
EC50 [10]: > 300 µM (not active)
EC50 [11]: > 300 µM (inconclusive)
CC50 (Vero): > 25 µM (active)

Cc1ccc(SCCN=C(S)Nc2cc(C)cc(C)c2)cc1
IC50 [12]: 6.82 µM (not active)

CCCSc1nn2c(=O)c3ccccc3nc2s1
CC50 [8]: > 40 µM (active)

CCCCN(CCCC)c1nc(-c2ccncc2)nc2ccccc12
EC50 [9]: 5.38 µM (active)
CC50 [8]: 29.3 µM (active)
EC50 (Streptococcus): 8.44 µM (active)

CCN(CC)CCN1CCn2c3c(c4cc(C)ccc42)CCCC31 (configuration not stated)
AC50 [1]: 17.6 µM (active)

CCC(=O)N1c2ccc(S(=O)(=O)CCC(=O)N3CCn4c3nc3ccccc34)cc2CC1C (configuration not stated)
EC50 [13]: 42.9 µM (active)
EC50 [14]: 4.5 µM (active)
CC50 [8]: > 40 µM (active)

CCc1ccc(NCc2ccc(OC)c(Cn3ccnc3)c2)cc1
CC50 [8]: 24.2 µM (active)

Cc1cccc(C(=O)Nc2cccc(S(=O)(=O)NCc3ccco3)c2)c1
CC50 (Vero): 23.6 µM (active)

c1ccc(CN2CCN(c3ncnc4c3[nH]c3ccccc34)CC2)cc1
AC50 [5]: 2.06 µM (active)
AC50 [6]: 31.4 µM (active)
AC50 [7]: 5.4 µM (active)

C=C1C(=O)OC2CC1C(OC(C)=O)CC(C)=CCCC(C)=CCCC2(C)O (configuration not stated)
AC50 [5]: 0.91 µM (active)
AC50 [6]: 15.1 µM (active)
AC50 [7]: 4.19 µM (active)

COc1cccc(S(=O)(=O)N(C)C[C@H]2OCc3ccccc3-c3c(n(C)c4ccccc34)C(=O)N([C@H](C)CO)C[C@H]2C)c1
AC50 (Paired box protein Pax-8): 9.53 µM (active)
AC50 [15]: > 70 µM (inactive)

Cc1ccc(S(=O)(=O)N(C)C[C@@H]2OCCCC[C@H](C)Oc3ccc(NS(=O)(=O)c4cccs4)cc3C(=O)N([C@H](C)CO)C[C@H]2C)cc1
AC50 (Paired box protein Pax-8): 6.6 µM (active)
AC50 [15]: > 70 µM (inactive)

CC(=O)Nc1cccc(-c2cc(N3CCN(CCO)CC3)n3nccc3n2)c1
AC50 [1]: 27.6 µM (active)

COc1ccc(S(=O)(=O)N(C)C[C@H]2OCCCC[C@@H](C)Oc3ccc(NS(=O)(=O)c4c(C)noc4C)cc3C(=O)N([C@H](C)CO)C[C@H]2C)cc1
AC50 (Paired box protein Pax-8): 7.76 µM (active)
AC50 [15]: 66 µM (active)

C[C@H](CO)N1C[C@H](C)[C@H](CN(C)Cc2ccc(C(F)(F)F)cc2)OCCCC[C@H](C)Oc2ccc(NC(=O)c3ccccc3)cc2C1=O
AC50 (Paired box protein Pax-8): 9.33 µM (active)
AC50 [15]: 43.7 µM (active)

CN(C)CCCNc1nc2cc(-c3cnn(C)c3)sc2c(=O)n1C
AC50 [1]: 10.2 µM (active)

Cc1ccccc1S(=O)(=O)N1[C@H](CO)[C@@H](c2ccc(C#CC3CC3)cc2)[C@@H]1C#N
AC50 [16]: 4.33 µM (active)

CC(C)(C)[S@+]([O-])N1Cc2cc(C(=O)NCCN3CCCCC3)nc(-c3cccc(-c4ccc(C#N)cc4)c3)c2[C@@H]1CCO
AC50 [16]: 9.22 µM (active)

COc1ccccc1CNC(=O)C[C@H]1C[C@H]2c3cc(NC(=O)Cc4ccncc4)ccc3O[C@H]2[C@@H](CO)O1
AC50 [16]: 4.52 µM (active)

C[C@@H]1CN([C@H](C)CO)C(=O)c2c(c3ccccc3n2C)-c2ccccc2CO[C@@H]1CN(C)Cc1cccc(F)c1
AC50 [16]: 3.45 µM (active)

COc1cccc(CNC(=O)c2cc3c(c(-c4cccc(-c5ccncc5)c4)n2)[C@@H](CCO)N([S@+]([O-])C(C)(C)C)C3)c1
AC50 [16]: 4.32 µM (active)
